The results in this text go back to US10954214B2 (Janssen Pharmaceutica NV, priority 2016, dated 2021).

Where two headings read alike, the source gives them in different places.

The subject of test [1] is IL6 secretion by TMD8 ABC-DLBCL cells. In words: Human IL6 Mesoscale assay (TMD-8). It counts as cell-based. To be noted: Homo sapiens, TMD8; TMD-8 cells, 24 h. An outline of the steps: (§1)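 Read-out: MSD electrochemiluminescence of IL6/IL10 in supernatants. Cells (100,000/well, no beta-mercaptoethanol) were exposed to compounds at 15 μM down to 58.6 nM, 1:2 dilutions, for 24 h at 37° C, 5% CO2. Normalised between DMSO (high) and RN486 (low) controls.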

Test [2] has as its system IL10 secretion by TMD8 ABC-DLBCL cells. In words: Human IL10 Mesoscale assay (TMD-8). The following applies: Homo sapiens, TMD8; TMD-8 cells, 24 h. It counts as cell-based. In a few lines: as §1
For test [3], the system named is IL6 secretion by OCI-LY3 ABC-DLBCL cells. The test can be described thus: Human IL6 Mesoscale assay (OCI-LY3). The test is classed as cell-based. The following applies: 24 h. An outline of the steps:
as §1

The subject of test [4] is IL10 secretion by OCI-LY3 ABC-DLBCL cells. The test can be described thus: Human IL10 Mesoscale assay (OCI-LY3). The following applies: 24 h. It counts as cell-based. An outline of the steps:
as §1

The next test concerns OCI-Ly3 cells. The test can be described thus: 4-day proliferation assay, OCI-Ly3. The test is classed as cell-based, human. To be noted: 4 days incubation, CellTiterGLO, read-out: Anti-proliferation: OCI-LY-3 IC50. In a few lines: (§2)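 Each line was plated at 10,000 cells per well for linear growth, with no beta-mercaptoethanol during the assay. OCI-Ly3 cells were below passage 10.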
For orientation: In ATP-based viability assays light output follows the ATP content of the culture.

The test system of the next test is TMD8 cells. The test can be described thus: 4-day proliferation assay, TMD8. It counts as cell-based. The following applies: 4 days incubation, CellTiterGLO, read-out: Anti-proliferation: TMD-8 IC50. An outline of the steps:
as §2

Test [5] addresses full-length MALT1 protein (Strep-MALT1(1-824)-His) (Homo sapiens (Human), UniProt Q9UDY8). In words: MALT1 Biochemical Protease Assay (Ac-LRSR-AMC substrate). To be noted: 10 nM FL MALT1, 200 μM Ac-LRSR-AMC, 4 h at RT; read-out: MALT1_Biochemical activity (Ac-LRSR-amc) IC50. An outline of the steps: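 Fluorescence from AMC release off the quenched LRSR substrate was read after a 4 h reaction at RT. Values were normalised to no-enzyme and uninhibited controls and fitted for IC50 and Hill coefficient.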

full-length MALT1 protein (Strep-MALT1(1-824)-His), sequence (Q9UDY8 whole entry): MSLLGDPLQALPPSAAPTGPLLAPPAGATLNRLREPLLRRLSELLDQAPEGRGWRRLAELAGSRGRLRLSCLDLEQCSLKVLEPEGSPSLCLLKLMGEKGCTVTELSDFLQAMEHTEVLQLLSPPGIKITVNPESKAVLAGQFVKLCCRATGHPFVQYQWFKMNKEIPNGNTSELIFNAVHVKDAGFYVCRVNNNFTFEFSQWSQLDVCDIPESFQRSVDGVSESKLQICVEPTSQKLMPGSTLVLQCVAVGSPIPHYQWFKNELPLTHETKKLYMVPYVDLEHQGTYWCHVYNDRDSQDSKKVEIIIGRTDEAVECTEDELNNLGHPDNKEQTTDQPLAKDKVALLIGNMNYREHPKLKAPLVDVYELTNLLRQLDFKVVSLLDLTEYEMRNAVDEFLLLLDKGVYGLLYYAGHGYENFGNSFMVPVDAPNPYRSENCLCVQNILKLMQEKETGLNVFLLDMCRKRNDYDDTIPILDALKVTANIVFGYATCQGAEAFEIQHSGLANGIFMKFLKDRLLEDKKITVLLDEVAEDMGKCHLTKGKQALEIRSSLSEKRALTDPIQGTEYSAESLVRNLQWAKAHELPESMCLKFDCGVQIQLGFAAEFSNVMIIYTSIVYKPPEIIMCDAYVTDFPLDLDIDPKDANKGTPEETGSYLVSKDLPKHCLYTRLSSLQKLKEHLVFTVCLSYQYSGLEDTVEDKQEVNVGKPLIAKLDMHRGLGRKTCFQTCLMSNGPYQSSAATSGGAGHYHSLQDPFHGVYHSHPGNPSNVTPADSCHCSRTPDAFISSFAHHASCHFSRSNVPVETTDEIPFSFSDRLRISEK

In the case of `N#Cc1cc(NC(=O)c2cnn(-c3ccnc4ccccc34)c2C(F)(F)F)ccc1-n1nccn1`, the IC50 in test [1] stood at 110 nM; in test [2], 100 nM; in test [3] (Homo sapiens), 34 nM; in test [4] (Homo sapiens), 40 nM; in the test with OCI-Ly3 cells (Homo sapiens, 96 h) it was 411 nM; with TMD8 cells (Homo sapiens, 96 h), 3800 nM.
With `O=C(Nc1cnc(-n2ncc(CO)n2)c(Cl)c1)c1cnn(-c2cccc3c(=O)[nH]ccc23)c1C(F)(F)F` [Cpd 115, N-(5-chloro-6-(4-(hydroxymethyl)-2H-1,2,3-triazol-2-yl)pyridin-3-yl)-1-(1-oxo-1,2-dihydroisoquinolin-5-yl)-5-(trifluoromethyl)-1H-pyrazole-4-carboxamide], the IC50 was determined as 12 nM in test [5]; 54 nM in test [1]; 46 nM in test [2]; 13 nM in test [3] (Homo sapiens); 10 nM in test [4] (Homo sapiens); 1210 nM in the test on OCI-Ly3 cells (Homo sapiens, 96 h). The IC50 with TMD8 cells (Homo sapiens, 96 h) is 20000 nM.
For the molecule `O=C(Nc1cnc(-n2nccn2)c(Cl)c1)c1cnn(-c2cccc3c(=O)[nH]ccc23)c1C(F)(F)F` [Cpd 116, N-(5-chloro-6-(2H-1,2,3-triazol-2-yl)pyridin-3-yl)-1-(1-hydroxyisoquinolin-5-yl)-5-(trifluoromethyl)-1H-pyrazole-4-carboxamide], the IC50 in test [5] was found to be 15 nM; in test [1] it was 13 nM; in test [2] it was 25 nM; in test [3] (Homo sapiens), 18 nM; in test [4] (Homo sapiens), 18 nM; with OCI-Ly3 cells (Homo sapiens, 96 h), 344 nM. In the test with TMD8 cells (Homo sapiens, 96 h), the IC50 stood at 6920 nM.
With `N#Cc1cc(NC(=O)c2cnn(-c3ccc(F)c4ncccc34)c2C(F)(F)F)cnc1-n1nccn1` [Cpd 308, N-(5-cyano-6-(2H-1,2,3-triazol-2-yl)pyridin-3-yl)-1-(8-fluoroquinolin-5-yl)-5-(trifluoromethyl)-1H-pyrazole-4-carboxamide], the IC50 in test [5] was 58 nM; in test [3] (Homo sapiens) it was 219 nM; in test [4] (Homo sapiens) it was 166 nM; in the test on OCI-Ly3 cells (Homo sapiens, 96 h), 617 nM; in the test on TMD8 cells (Homo sapiens, 96 h), 4570 nM.
The corresponding values for `N#Cc1cc(NC(=O)c2cnn(-c3cccc4ocnc34)c2C(F)(F)F)cnc1-n1nccn1` [Cpd 311, 1-(benzo[d]oxazol-4-yl)-N-(5-cyano-6-(2H-1,2,3-triazol-2-yl)pyridin-3-yl)-5-(trifluoromethyl)-1H-pyrazole-4-carboxamide] are 50 nM, 34 nM, 37 nM, 2320 nM and 3550 nM.
The corresponding values for `Cc1nc(-n2nccn2)c(C#N)cc1NC(=O)c1cnn(-c2cccc3nnsc23)c1C(F)(F)F` [Cpd 314, 1-(benzo[d][1,2,3]thiadiazol-7-yl)-N-(5-cyano-2-methyl-6-(2H-1,2,3-triazol-2-yl)pyridin-3-yl)-5-(trifluoromethyl)-1H-pyrazole-4-carboxamide] are 39 nM, 1020 nM, 692 nM, 631 nM and 1860 nM.
The corresponding values for `N#Cc1cc(NC(=O)c2cnn(-c3cccc4scnc34)c2C(F)(F)F)cnc1-n1nccn1` [Cpd 316, 1-(benzo[d]thiazol-4-yl)-N-(5-cyano-6-(2H-1,2,3-triazol-2-yl)pyridin-3-yl)-5-(trifluoromethyl)-1H-pyrazole-4-carboxamide] are 37 nM, 251 nM, 182 nM, 1450 nM and 3090 nM.
For the molecule `N#Cc1cc(NC(=O)c2cnn(-c3ccc(N)c4ncccc34)c2C(F)(F)F)cnc1-n1nccn1` [Cpd 326, 1-(8-aminoquinolin-5-yl)-N-(5-cyano-6-(2H-1,2,3-triazol-2-yl)pyridin-3-yl)-5-(trifluoromethyl)-1H-pyrazole-4-carboxamide], the IC50 in test [5] came out at 45 nM; in test [3] (Homo sapiens) it was 105 nM; in test [4] (Homo sapiens) it was 89 nM; with OCI-Ly3 cells (Homo sapiens, 96 h) it was 881 nM; with TMD8 cells (Homo sapiens, 96 h) it was 3240 nM.
The corresponding values for `Cc1nc(-n2nccn2)c(C#N)cc1NC(=O)c1cnn(-c2cnc(N)c3ccccc23)c1C(F)(F)F` [Cpd 338, 1-(1-aminoisoquinolin-4-yl)-N-(5-cyano-2-methyl-6-(2H-1,2,3-triazol-2-yl)pyridin-3-yl)-5-(trifluoromethyl)-1H-pyrazole-4-carboxamide] are 58 nM, 45 nM, 31 nM, 1150 nM and 1440 nM.
The matching figures for `CC(O)c1ncc(-n2ncc(C(=O)Nc3cnc(-n4nccn4)c(Cl)c3)c2C(F)(F)F)c2ccsc12` (stereo not drawn) [Cpd 376, N-(5-chloro-6-(2H-1,2,3-triazol-2-yl)pyridin-3-yl)-1-(7-(1-hydroxyethyl)thieno[2,3-c]pyridin-4-yl)-5-(trifluoromethyl)-1H-pyrazole-4-carboxamide]: 24 nM, 58 nM, 50 nM, 1070 nM and 1440 nM.
In the case of `NC(=O)c1ncc(-n2ncc(C(=O)Nc3cnc(-n4nccn4)c(Cl)c3)c2C(F)(F)F)c2ccccc12` [Cpd 387, 4-(4-((5-chloro-6-(2H-1,2,3-triazol-2-yl)pyridin-3-yl)carbamoyl)-5-(trifluoromethyl)-1H-pyrazol-1-yl)isoquinoline-1-carboxamide], the IC50 in test [5] was 30 nM; in test [3] (Homo sapiens), 141 nM; in test [4] (Homo sapiens), 95 nM; in the test on OCI-Ly3 cells (Homo sapiens, 96 h), 692 nM; with TMD8 cells (Homo sapiens, 96 h), 2190 nM.
The matching figures for `O=C(Nc1cnc(-n2nccn2)c(Cl)c1)c1cnn(-c2cc(=O)[nH]c3ccccc23)c1C(F)(F)F` [Cpd 418, N-(5-chloro-6-(2H-1,2,3-triazol-2-yl)pyridin-3-yl)-1-(2-oxo-1,2-dihydroquinolin-4-yl)-5-(trifluoromethyl)-1H-pyrazole-4-carboxamide]: 550 nM, 95 nM, 71 nM, 464 nM and 3630 nM.
With `Cc1cc(-n2nccn2)c(C#N)cc1NC(=O)c1cnn(-c2cccc3c(=O)[nH]ccc23)c1C(F)(F)F` [Cpd 446, N-(5-cyano-2-methyl-4-(2H-1,2,3-triazol-2-yl)phenyl)-1-(1-oxo-1,2-dihydroisoquinolin-5-yl)-5-(trifluoromethyl)-1H-pyrazole-4-carboxamide], the IC50 is 32 nM in test [5]; 22 nM in test [3] (Homo sapiens); 13 nM in test [4] (Homo sapiens); 1060 nM with OCI-Ly3 cells (Homo sapiens, 96 h); over 20000 nM in the test on TMD8 cells (Homo sapiens, 96 h).
The corresponding values for `O=C(Nc1cnc(-n2nccn2)c(Cl)c1)c1cnn(-c2cncc3sccc23)c1C(F)(F)F` [Cpd 447, N-(5-chloro-6-(2H-1,2,3-triazol-2-yl)pyridin-3-yl)-1-(thieno[2,3-c]pyridin-4-yl)-5-(trifluoromethyl)-1H-pyrazole-4-carboxamide] are 447 nM, 46 nM, 42 nM, 313 nM and 2190 nM.
The corresponding values for `O=C(Nc1cnc(-n2nccn2)c(Cl)c1)c1cnn(-c2cnc(O)c3ccccc23)c1C(F)(F)F` [Cpd 448, N-(5-chloro-6-(2H-1,2,3-triazol-2-yl)pyridin-3-yl)-1-(1-hydroxyisoquinolin-4-yl)-5-(trifluoromethyl)-1H-pyrazole-4-carboxamide] are 1290 nM, 117 nM, 79 nM, 550 nM and 5620 nM.
Regarding `O=C(Nc1cnc(-n2nccn2)c(Cl)c1)c1cnn(-c2ccnc3ccccc23)c1C(F)(F)F` [Cpd 450, N-(5-chloro-6-(2H-1,2,3-triazol-2-yl)pyridin-3-yl)-1-(quinolin-4-yl)-5-(trifluoromethyl)-1H-pyrazole-4-carboxamide], the IC50 in test [5] turned out to be 10 nM; in test [3] (Homo sapiens), 107 nM; in test [4] (Homo sapiens), 71 nM; in the test with OCI-Ly3 cells (Homo sapiens, 96 h) it was 295 nM; in the test with TMD8 cells (Homo sapiens, 96 h) it was 2820 nM.
Take “N-(4-(4-(aminomethyl)-1H-pyrazol-1-yl)-3-chlorophenyl)-1-(quinolin-5-yl)-5-(trifluoromethyl)-1H-pyrazole-4-carboxamide [Cpd 174]”: the IC50 was determined as 59 nM in test [5]; 251 nM in test [3]; 112 nM in test [4]; 804 nM in the test with OCI-Ly3 cells; 1700 nM with TMD8 cells.
